In ChEMBL document CHEMBL5532635, “The role of natural anti-parasitic guided development of synthetic drugs for leishmaniasis” (Eur J Med Chem, 2023):
In brackets after ≈: the same amount, converted by molar mass. Values belong to the compound of their own block, whether it stands above or below them.

Tests used:
Leishmania donovani [1] = assay: Antileishmanial activity against Leishmania donovani promastigotes at 50 uM; type: functional
Leishmania donovani [2] = assay: Antileishmanial activity against Leishmania donovani promastigotes at 25 uM; type: functional
Leishmania donovani [3] = assay: Immunosuppressive activity in Leishmania donovani assessed as inhibition of PGE2 production; type: functional, organism-based
Leishmania donovani [4] = assay: Antileishmanial activity against Leishmania donovani amastigotes assessed as reduction in microbial growth; type: functional, organism-based
Leishmania amazonensis [5] = assay: Antileishmanial activity against Leishmania amazonensis promastigotes assessed as reduction in parasite viability after 48 hrs by MTT assay; type: functional, organism-based
Leishmania amazonensis [6] = assay: Antileishmanial activity against Leishmania amazonensis MHOM/BR/1989/166MJO promastigotes assessed as reduction in […] growth; type: functional, organism-based
Leishmania amazonensis [7] = assay: Antileishmanial activity against Leishmania amazonensis MHOM/BR/1989/166MJO promastigotes infected in mouse macrophage assessed as parasite growth inhibition measured after 72 hrs by MTT assay; type: functional, organism-based
J774.A1 = assay: Cytotoxicity against mouse J774.A1 cells assessed as reduction in cell viability incubated for 24 hrs by MTT assay; type: functional
Leishmania tropica [8] = assay: Antileishmanial activity against Leishmania tropica promastigotes incubated for 24 hrs measured by alamar blue staining based fluorescence analysis; type: functional, organism-based
Leishmania tropica [9] = assay: Antileishmanial activity against Leishmania tropica amastigotes incubated for 24 hrs measured by alamar blue staining based fluorescence analysis; type: functional, organism-based
Leishmania major [10] = assay: Antileishmanial activity against Leishmania major IR-173 amastigotes assessed as parasite growth inhibition incubated for 72 hrs by resazurin dye based assay; type: functional, organism-based; settings: IR-173, 72 h
Leishmania amazonensis [11] = assay: Antileishmanial activity against Leishmania amazonensis promastigotes assessed as inhibition of parasite growth; type: functional, organism-based
Leishmania infantum [12] = assay: Antileishmanial activity against Leishmania infantum MON-1 promastigotes assessed as reduction in parasite viability measured after 48 hrs by MTT assay; type: functional, organism-based; settings: MON-1, 48 h
Leishmania infantum [13] = assay: Antileishmanial activity against Leishmania infantum MHOM/MA/67/ITMAP263 promastigotes expressing red-shifted luciferase gene infected in mouse J774 cells incubated for 24 hrs by microplate luminometer analysis; type: functional, organism-based; settings: MHOM/MA/67/ITMAP263, J774, 24 h
Leishmania donovani [14] = assay: Antileishmanial activity against Leishmania donovani amastigotes assessed as parasite growth inhibition incubated for 72 hrs by MTS assay; type: functional, organism-based
Leishmania infantum [15] = assay: Antileishmanial activity against Leishmania infantum MHOM/BR/70/BH46 promastigotes assessed as inhibition of parasite growth incubated for 72 hrs by Neubauer chamber based analysis; type: functional, organism-based; settings: MHOM/BR/70/BH46, 72 h
Leishmania donovani [16] = assay: Antileishmanial activity against Leishmania donovani BHU575 promastigotes assessed as cell viability by MTT assay; type: functional, organism-based
Leishmania infantum [17] = assay: Antileishmanial activity against Leishmania infantum amastigotes infected in human THP-1 cells assessed as reduction in parasite growth incubated for 72 hrs by high content imaging analysis; type: functional, organism-based; settings: THP-1, 72 h
Leishmania tropica [18] = assay: Antileishmanial activity against Leishmania tropica promastigotes assessed as inhibition of parasite growth; type: functional, organism-based
Leishmania amazonensis [19] = assay: Antileishmanial activity against Leishmania amazonensis promastigotes assessed as reduction in parasite viability measured after 48 hrs by alamar blue analysis; type: functional, organism-based
Leishmania amazonensis [20] = assay: Antileishmanial activity against Leishmania amazonensis promastigotes assessed as inhibition of parasite growth at 10 uM relative to control; type: functional; parameters: scale not given: the % may be the effect or the level left
Leishmania major [21] = assay: Antileishmanial activity against Leishmania major promastigote assessed as inhibition of parasite growth; type: functional, organism-based
Leishmania amazonensis [22] = assay: Antileishmanial activity against Leishmania amazonensis promastigotes assessed as reduction in parasite viability after 72 hrs by CCK-8 assay; type: functional, organism-based
Leishmania amazonensis [23] = assay: Antileishmanial activity against Leishmania amazonensis promastigotes; type: functional, organism-based
Leishmania infantum [24] = assay: Antileishmanial activity against Leishmania infantum promastigote assessed as reduction in parasite growth after 72 hrs by MTT assay; type: functional, organism-based
Leishmania donovani [25] = assay: Antileishmanial activity against Leishmania donovani promastigotes; type: functional, organism-based
Leishmania donovani [26] = assay: Antileishmanial activity against Leishmania donovani amastigotes; type: functional, organism-based
[27] = Inhibition of recombinant Leishmania mexicana Trypanothione reductase

SMILES: COc1cc(/C=C2/Oc3cc(O)ccc3C2=O)cc(OC)c1
- Activity (Leishmania donovani [1]): 109%
- Activity (Leishmania donovani [2]): 106%

- IC50 (Leishmania donovani [3]): 5.9 µM
SMILES: COc1ccc2c(c1)O/C(=C/c1cc(O)cc(O)c1)C2=O
- Activity (Leishmania donovani [1]): 108%
- Activity (Leishmania donovani [2]): 105%

SMILES: NC(=S)N/N=C(/C=C/c1cccnc1)c1cccc(NC(=O)Nc2ccc(Cl)cc2)c1
- IC50 (Leishmania donovani [4]): 3.81 µM

SMILES: COC(=O)C1=CCC[C@@H]2[C@@](C)(CCc3ccco3)[C@H](C(=O)OC)CC[C@@]12C
- IC50 (Leishmania amazonensis [5]): 0.027 µM

SMILES: COc1cc(C(=O)/C=C/c2ccc([N+](=O)[O-])cc2)c(C(C)=O)c2c(OC)cccc12
- IC50 (Leishmania amazonensis [6]): 3.3 µM
- IC50 (Leishmania amazonensis [7]): 18.5 µM
- CC50 (J774.A1): 373 µM

SMILES: Nc1ccc(C(=O)N/N=C2\C(=O)N(CC(O)COc3cc(=O)oc4ccccc34)c3ccccc32)cc1 (stereo not given)
- IC50 (Leishmania tropica [8]): 1.62 µM
- IC50 (Leishmania tropica [9]): 2.85 µM

SMILES: Cc1ccc2c(NCCCCCNC(=O)c3cccc(/C=C/C(=O)c4ccc(C)o4)c3)ccnc2c1
- IC50 (Leishmania major [10]): 0.46 µM

SMILES: COC(=O)C1=CCC[C@@H]2[C@@](C)(CCc3ccco3)[C@H](C(=O)O)CC[C@@]12C
- IC50 (Leishmania amazonensis [11]): 0.11 µM

- EC50 (Leishmania infantum [13]): 0.78 µM
SMILES: COc1cc(OC)c(C(=O)/C=C/c2cccc(C)c2)c([N+](=O)[O-])c1
- IC50 (Leishmania infantum [12]): 74.1 µM

SMILES: C/C1=C\C(=O)OC(C(C)(C)C)CCCC(O)CCCC(O)CCCC(O)CCCC(O)CCCC(O)CCCC(O)CCCC(O)CCCCCC(O)C1 (stereo not given)
- IC50 (Leishmania donovani [14]): 4.67 µM

SMILES: Cc1cc(Br)cc2c(/C=N\NC(=S)Nc3ccccc3)c[nH]c12
- IC50 (Leishmania infantum [15]): 5.6 µM

SMILES: CC1=CCC[C@H]2[C@](C)(Cc3cc(O)ccc3O)[C@@H](C)CC[C@]12C [AVAROL]
- IC50 (Leishmania donovani [16]): 7.42 µM
- IC50 (Leishmania infantum [17]): 3.19 µM
- IC50 (Leishmania tropica [18]): 7.08 µM

SMILES: CC[C@H]1C[C@@H]2CN3CCc4c([nH]c5ccccc45)[C@](C(=O)OC)(C2)[C@H]13 [CORONARIDINE]
- IC50 (Leishmania amazonensis [19]): 12.5 µg/mL (≈ 36.9 µM)
- Activity (Leishmania amazonensis [20]): 97%

SMILES: COc1c2ccoc2nc2c(OC)cccc12 [GAMMA-FAGARINE]
- IC50 (Leishmania major [21]): > 74.2 µM

- IC50 (Leishmania amazonensis [23]): 7.1 µM
SMILES: CC1(C)C=Cc2c(ccc3c2OCC2c4cc5c(cc4OC32)OCO5)O1 (stereo not given) [LEIOCARPIN]
- IC50 (Leishmania amazonensis [22]): 11.4 µM
- IC50 (Leishmania infantum [24]): 15.5 µM

- EC50 (Leishmania donovani [25]): 4.58 µM
- EC50 (Leishmania donovani [26]): 0.33 µM
SMILES: O=C1/C(=C/c2ccc(O)c(O)c2)Oc2cc(O)ccc21 [SULFURETIN]

- IC50 [27]: 7.03 µM
SMILES: C[C@H]1[C@H](C)CC[C@]2(C(=O)O)CC[C@]3(C)C(=CC[C@@H]4[C@@]5(C)CC[C@H](O)C(C)(C)[C@@H]5CC[C@]43C)[C@H]12 [URSOLIC ACID]
